Columns and labels:
MAO-B = biological target: T1, MAO-B (Homo sapiens, UniProt P27338); experiment: radioligand displacement of [3H]deprenyl, filtration; assay type: binding; settings: [3H]deprenyl radioligand, PBS, 0.1% BSA, 2% DMSO
T1 construct: gene MAOB; native enzyme in human non-demented control (NDC) brain homogenate
T1 sequence (P27338 2-520): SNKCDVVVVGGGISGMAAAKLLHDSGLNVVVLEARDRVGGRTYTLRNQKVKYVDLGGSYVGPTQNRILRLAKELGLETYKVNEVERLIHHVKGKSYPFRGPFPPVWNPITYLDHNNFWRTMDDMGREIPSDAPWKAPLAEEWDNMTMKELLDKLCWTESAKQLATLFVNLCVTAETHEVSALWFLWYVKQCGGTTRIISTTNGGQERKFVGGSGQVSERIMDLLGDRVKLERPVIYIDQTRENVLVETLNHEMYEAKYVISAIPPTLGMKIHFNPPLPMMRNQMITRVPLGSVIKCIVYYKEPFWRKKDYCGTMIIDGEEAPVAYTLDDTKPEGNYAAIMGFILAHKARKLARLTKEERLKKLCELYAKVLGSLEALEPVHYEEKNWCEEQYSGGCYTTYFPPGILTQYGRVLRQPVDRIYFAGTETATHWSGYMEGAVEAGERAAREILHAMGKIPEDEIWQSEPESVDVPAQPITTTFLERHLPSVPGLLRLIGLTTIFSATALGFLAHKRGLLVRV

MAO-A = biological target: T2, MAO-A (Mus musculus, UniProt Q64133); experiment: radioligand displacement of […]FEH, filtration; assay type: binding; settings: [18F]fluoroethylharmine radioligand, PBS, 0.1% BSA, 2% DMSO
T2 construct: gene Maoa; native enzyme in mouse brain homogenate, 20 ug/well
T2 sequence (Q64133 1-526): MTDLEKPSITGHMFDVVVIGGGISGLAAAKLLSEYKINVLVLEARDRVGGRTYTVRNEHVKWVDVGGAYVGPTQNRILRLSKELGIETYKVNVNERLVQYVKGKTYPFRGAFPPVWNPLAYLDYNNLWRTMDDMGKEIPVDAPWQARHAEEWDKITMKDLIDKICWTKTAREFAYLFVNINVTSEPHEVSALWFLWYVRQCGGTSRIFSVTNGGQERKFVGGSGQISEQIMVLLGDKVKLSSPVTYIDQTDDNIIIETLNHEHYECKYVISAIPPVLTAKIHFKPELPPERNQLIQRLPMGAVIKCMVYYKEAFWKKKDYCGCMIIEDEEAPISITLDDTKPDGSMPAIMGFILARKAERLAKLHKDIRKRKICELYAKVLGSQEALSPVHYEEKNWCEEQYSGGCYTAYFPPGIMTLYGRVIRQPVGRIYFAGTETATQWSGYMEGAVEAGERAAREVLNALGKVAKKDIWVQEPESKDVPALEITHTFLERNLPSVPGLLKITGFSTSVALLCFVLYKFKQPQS

Row | SMILES | pIC50 (MAO-B) | [^18F]FEH MAO-A pIC50^a (MAO-A) | [^3H]Deprenyl MAO-B pIC50^c (MAO-B)
1 | CNc1ccc(-c2ccc3cc(OCC(O)CF)ccc3n2)cn1 (stereo not drawn) [THK5151, reference compound] | 7.4 | – | –
2 | Fc1ccc(-c2ccc3c(c2)[nH]c2ccncc23)cn1 [compound 1, AV-1451] | – | 7.7 | 6.8
3 | Fc1ccc(-c2ccc3c(n2)[nH]c2ccncc23)cn1 [compound 3, RO6958948] | – | 6.3 | –
4 | Fc1cnccc1-c1ccc2c(n1)[nH]c1ccncc12 [compound 8, 8] | – | 6.1 | –
5 | Fc1cccc(-c2ccc3c(n2)[nH]c2ccncc23)n1 [compound 9, 9] | – | 6.6 | 6.5
6 | Fc1ccc(-c2ccc3c(n2)[nH]c2ccncc23)nc1 [compound 10, 10] | – | 7.1 | 6.5

Reference: article PMC6667408, “Discovery and preclinical characterization of [^18F]PI-2620, a next-generation tau PET tracer for the assessment of tau pathology in Alzheimer’s disease and other tauopathies” (European Journal of Nuclear Medicine and Molecular Imaging, 2019)
